Measured values as given in patent US12630521B2, “Arylamides and methods of use thereof” (Genzyme Corporation, priority 2019, dated 2026).

Assays:
[1] = biological target: T1, CFTR (ΔF508 homozygous CF-HBE cells) (Homo sapiens, UniProt P13569, DEL508-508); experiment: TECC24 AUC fold over DMSO @10 uM: CFTR-mediated transepithelial chloride transport in primary CF-HBE cells; assay type: cell-based; details: 10 μM test agent, 48 hours, forskolin-stimulated IEQ AUC divided by vehicle AUC
T1 construct: Primary human bronchial epithelial cells from a ΔF508 homozygous CF donor; host or cells: primary CF-HBE cells (ΔF508/ΔF508 donor)
T1 sequence (P13569 with tags, fused parts or gaps DEL508-508): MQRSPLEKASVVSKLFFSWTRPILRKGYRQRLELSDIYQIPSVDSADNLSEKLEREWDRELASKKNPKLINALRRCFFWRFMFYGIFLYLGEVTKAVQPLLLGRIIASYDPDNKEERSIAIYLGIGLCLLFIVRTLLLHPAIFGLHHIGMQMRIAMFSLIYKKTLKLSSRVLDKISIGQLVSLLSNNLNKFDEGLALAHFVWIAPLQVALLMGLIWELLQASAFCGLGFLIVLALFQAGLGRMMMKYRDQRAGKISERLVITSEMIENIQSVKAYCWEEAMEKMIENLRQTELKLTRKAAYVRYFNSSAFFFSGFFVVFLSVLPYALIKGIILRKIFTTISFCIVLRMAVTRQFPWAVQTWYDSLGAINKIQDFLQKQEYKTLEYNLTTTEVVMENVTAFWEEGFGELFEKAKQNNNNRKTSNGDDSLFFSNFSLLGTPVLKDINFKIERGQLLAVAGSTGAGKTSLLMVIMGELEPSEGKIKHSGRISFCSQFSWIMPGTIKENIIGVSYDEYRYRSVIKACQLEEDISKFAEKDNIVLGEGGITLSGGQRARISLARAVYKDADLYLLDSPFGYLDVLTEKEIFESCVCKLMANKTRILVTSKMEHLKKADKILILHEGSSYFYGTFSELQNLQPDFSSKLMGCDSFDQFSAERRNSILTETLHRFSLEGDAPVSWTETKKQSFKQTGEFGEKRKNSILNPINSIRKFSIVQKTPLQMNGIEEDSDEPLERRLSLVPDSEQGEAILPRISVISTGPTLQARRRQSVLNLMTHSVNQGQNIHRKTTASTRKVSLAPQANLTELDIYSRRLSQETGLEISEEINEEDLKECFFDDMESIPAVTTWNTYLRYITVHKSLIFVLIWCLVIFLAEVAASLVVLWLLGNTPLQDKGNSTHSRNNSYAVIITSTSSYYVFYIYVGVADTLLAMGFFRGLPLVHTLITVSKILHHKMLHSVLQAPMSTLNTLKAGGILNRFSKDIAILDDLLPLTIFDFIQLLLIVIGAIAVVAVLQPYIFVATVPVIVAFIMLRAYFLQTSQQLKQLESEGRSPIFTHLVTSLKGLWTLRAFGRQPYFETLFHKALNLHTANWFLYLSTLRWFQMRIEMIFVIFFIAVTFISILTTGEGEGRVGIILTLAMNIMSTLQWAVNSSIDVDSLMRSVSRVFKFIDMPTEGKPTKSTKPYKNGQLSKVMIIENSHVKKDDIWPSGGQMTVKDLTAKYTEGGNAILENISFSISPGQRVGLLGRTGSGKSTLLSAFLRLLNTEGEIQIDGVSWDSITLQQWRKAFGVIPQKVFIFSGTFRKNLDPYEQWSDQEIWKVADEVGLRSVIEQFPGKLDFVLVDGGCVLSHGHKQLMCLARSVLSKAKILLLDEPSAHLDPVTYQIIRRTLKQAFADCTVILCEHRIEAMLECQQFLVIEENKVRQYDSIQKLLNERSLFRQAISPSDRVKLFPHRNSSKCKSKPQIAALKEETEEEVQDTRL
Description: Example 37: TECC24 AUC Fold Over DMSO @10 uM
The effects of a test agent on CFTR-mediated transepithelial chloride transport was measured using TECC24 recording analysis. Test agents were solubilized in DMSO. Solubilized test agents were mixed with incubation medium containing DMEM/F12, Ultroser G (2%; Crescent Chemical, catalog #67042), Hyclone Fetal Clone 11(2%; GE Healthcare, catalog #SH30066.02), bovine brain extract (0.25%; Lonza, catalog #CC-4098), insulin (2.5 μg/mL), IL-13 (10 ng/mL), hydrocortisone (20 nM), transferrin (2.5 μg/mL), triiodothyronine (500 nM), ethanolamine (250 nM), epinephrine (1.5 μM), phosphoethanolamine (250 nM), and retinoic acid (10 nM). Primary human bronchial epithelial cells from a ΔF508 homozygous CF donor (CF-HBE cells; from University of North Carolina Cystic Fibrosis Tissue Procurement Center), grown on Transwell HTS 24-well cell culture inserts (Costar, catalog #3378), were exposed to test agents or controls dissolved in incubation medium. The CF-HBE cells were cultured at 36.5° C. for 48 hours before TECC24 recordings were performed in the presence or absence of test agent, a positive control or vehicle (DMSO).
Following incubation, the transwell cell culture inserts containing the test agent or control-treated CF-HBE cells were loaded onto a TECC24 apparatus (TECC v7 or MTECC v2; EP Design) to record the transepithelial voltage (VT) and resistance (TEER) using 4 AgCl electrodes per well configured in current-clamp mode. The apical and basolateral bath solutions both contained (in mM) 140 NaCl, 5 KCl, 2 CaCl2, 1 MgCl2, 10 Hepes, and 10 glucose (adjusted to pH 7.4 with NaOH). To inhibit basal Na+ absorption, the ENaC inhibitor benzamil (10 μM) was added to the bath. Then, the adenylate cyclase activator, forskolin (10 μM), was added to the bath to activate CFTR. The forskolin-stimulated Cl— transport was halted by addition of CFTR inhibitor-172 (20 μM) to the bath at the end of the experiment to confirm specificity. VT and TEER recordings were digitally acquired at routine intervals using TECC or MTECC software (EP Design). VT and TEER were transformed into equivalent transepithelial Cl-current (IEQ), and the Area Under the Curve (AUC) of the IEQ time course between forskolin and CFTR inhibitor-172 addition is generated using Excel (Microsoft). Efficacy is expressed as the ratio of the test agent AUC divided by vehicle AUC. EC50s based on AUC are generated using the non-linear regression log(agonist) vs. response function in Prism software (GraphPad) with Hill Slope fixed=1.
If a test agent increased the AUC of the forskolin-stimulated IEQ relative to vehicle in CF-HBE cells, and this increase was inhibited by CFTR inhibitor-172, then the test agent was considered a CFTR corrector.

[2] = biological target: T2, human Cystic Fibrosis Transmembrane Conductance Regulator (CFTR) harboring the ΔF508 mutation (Homo sapiens, UniProt P13569, DEL508-508); experiment: H441 cell Emax and EC50: HRP-tagged ΔF508-CFTR cell-surface luminescence assay; assay type: cell-based; details: H441 cells expressing HRP-tagged ΔF508-CFTR, 27° C. for two nights; for EC50: 15-point dose-response; for Emax: NCI-H441, % of maximum VX809 signal
T2 construct: expressed in transfected cells; host or cells: H441 carcinoma cell line (G418 selection)
T2 sequence (P13569 with tags, fused parts or gaps DEL508-508): as above
Excerpt: Example 36: H441 Cell Emax and EC50
Two cell lines were used, the H441 carcinoma line and the CFHBE41o− (41o−) human bronchial epithelial line. Both cell lines expressed human Cystic Fibrosis Transmembrane Conductance Regulator (CFTR) harboring the ΔF508 mutation and with an in-frame fusion in CFTR extracellular loop 4 of Horse Radish Peroxidase (HRP) under control of the CMV promoter. In the presence of the HRP tag, ΔF508-CFTR transported to the cell surface was detectable upon addition of an HRP substrate (Luminata Forte). Both cell types were cultivated at 37° C. with CO2.
For both cell types, the medium was changed every other day unless the culture was at low % confluence. Cells were used for the assays at ˜75% confluence.
DMSO/Compound Dilutions Plate for 15-Point Dose-Response Testing
To a polypropylene (PP) 384-well plate, 15 μls DMSO was added to all wells in columns 1-22 and 24 (low Control). 15 μls of 260 μM VX809 (Lumacaftor), Selleckchem S1565, was added to column 23 wells (high Control). 15 μls of 10 mM test compound or VX809 (control) were added to wells of row A. Serial dilutions of Row A compound were performed 2×15 μls in rows A through 0 (15-point).
A PP, 384-well plate containing the appropriate cell culture medium was prepared for each assay plate with 100 μls per well. For the doxycycline-induced 41o− cells, doxycycline for both the assay plate and the medium dilution plate was added at 0.0005 mg/ml to the medium.
Both cell lines were plated for the assay at 30 μls per 384-well at 3.4×10^e5 cells per ml (˜10K cells/well). H441 cells were plated on opaque, white, Corning plate 3704. 41o− cells were plated on collagen-coated opaque, white, Corning plate 356665. For 41o− cells, doxycycline was added to the medium.
Compound Addition/Assay Incubation
Using FX (Beckman) protocol, 10 μls diluted compound or medium was added per well to the Assay Plate as: 2 μls DMSO Dilution plate well is diluted in 100 μls of the Medium Dilution Plate well, mixed, and 10 μls is transferred to the Assay Plate.
The final assay dilution series is 24.5, 12.3, 6.1, 3.1, 1.5, 0.8, 0.4, 0.2, 0.1, 0.05, 0.02, 0.01, 0.006, 0.003, 0.001 and 0 μM. The 41o− assay plates were incubated at 37° C. w/CO2, the H441 assay plates were incubated at 27° C. w/CO2, each overnight for two nights.
Assay Result Determination
After being brought to room temperature, the assay plate liquid was removed. 30 uls of Luminata Forte (Millipore ELLUF0100) was added per well and incubated at room temperature for 10 min. The plates were then read on a Topcount, protocol LumiMatti (CPS, luminescence). The data was analyzed for % of maximum, maximum VX809 signal, and EC50 using Pearl and SPEED tools.

Row | TECC24 AUC fold over DMSO [1] | EC50 [2] [nM] | Emax [2] [%] | SMILES
1 | A (“A” refers to AUC @10 μM > 6) | 662 | 286 | Cc1nc2c(OCc3ccc(C(F)(F)F)cc3)c(C(=O)N[C@H](C(=O)O)C(C)(C)C)ccc2s1 [Compound 35-3, (2S)-3,3-dimethyl-2-[[2-methyl-4-[[4-(trifluoromethyl)phenyl]methoxy]-1,3-benzothiazole-5-carbonyl]amino]butanoic acid]
2 | B (“B” refers to AUC @10 μM between 4-6) | 1250 | 216 | CCc1cc2ccc(C(=O)N[C@H](C(=O)O)C(C)(C)CC)c(OCc3ccc(OC(F)(F)F)cc3)c2s1 [Compound 33-10, (2S)-2-(2-ethyl-7-((4-(trifluoromethoxy)benzyl)oxy)-benzo[b]thiophene-6-carboxamido)-3,3-dimethylpentanoic acid]
3 | A (“A” refers to AUC @10 μM > 6) | 337 | 268 | CCc1cc2c(OCc3ccc(C(F)(F)F)cc3)c(C(=O)N[C@H](C(=O)O)C(C)(C)C)ccc2s1 [Compound 33-21, (2S)-2-(2-ethyl-4-((4-(trifluoromethyl)benzyl)oxy)-benzo[b]thiophene-5-carboxamido)-3,3-dimethylbutanoic acid]
4 | B (“B” refers to AUC @10 μM between 4-6) | 277 | 168 | CCC(C)(C)[C@H](NC(=O)c1ccc2cc(CCC(C)C)sc2c1OCc1ccc(C(F)(F)F)cc1)C(=O)O [Compound 33-32, (2S)-2-(2-isopentyl-7-((4-(trifluoromethyl)benzyl)oxy)-benzo[b]thiophene-6-carboxamido)-3,3-dimethylpentanoic acid]
5 | C (“C” refers to AUC @10 μM < 4) | 6890 | 127 | CC(C)(C)[C@H](NC(=O)c1ccc2sccc2c1OCC1CCC(F)(F)CC1)C(=O)O [Compound 32-7, (2S)-2-(4-((4,4-difluorocyclohexyl)methoxy)-benzo[b]thiophene-5-carboxamido)-3,3-dimethylbutanoic acid]
6 | A (“A” refers to AUC @10 μM > 6) | 2350 | 232 | CC(C)c1cc2c(OCc3ccc(OC(F)(F)F)cc3)c(C(=O)N[C@H](C(=O)O)C(C)(C)C)ccc2s1 [Compound 33-4, (2S)-2-(2-isopropyl-4-((4-(trifluoromethoxy)benzyl)oxy)-benzo[b]thiophene-5-carboxamido)-3,3-dimethylbutanoic acid]
7 | C (“C” refers to AUC @10 μM < 4) | 999 | 150 | CC(C)c1cc2ccc(C(=O)N[C@H](C(=O)O)C(C)(C)C)c(OCc3ccc(OC(F)(F)F)cc3)c2s1 [Compound 33-12, (2S)-2-(2-isopropyl-7-((4-(trifluoromethoxy)benzyl)oxy)-benzo[b]thiophene-6-carboxamido)-3,3-dimethylbutanoic acid]
8 | B (“B” refers to AUC @10 μM between 4-6) | 340 | 218 | CCC(C)(C)[C@H](NC(=O)c1ccc2sc(CCC(C)C)cc2c1OCc1ccc(C(F)(F)F)cc1)C(=O)O [Compound 33-16, (2S)-2-(2-isopentyl-4-((4-(trifluoromethyl)benzyl)oxy)-benzo[b]thiophene-5-carboxamido)-3,3-dimethylpentanoic acid]
9 | A (“A” refers to AUC @10 μM > 6) | 309 | 262 | CCc1cc2c(OCc3ccc(C(F)(F)F)cc3)c(C(=O)N[C@H](C(=O)O)C(C)(C)CC)ccc2s1 [Compound 33-27, (2S)-2-(2-ethyl-4-((4-(trifluoromethyl)benzyl)oxy)-benzo[b]thiophene-5-carboxamido)-3,3-dimethylpentanoic acid]
10 | A (“A” refers to AUC @10 μM > 6) | 884 | 350 | CC(C)(C)[C@H](NC(=O)c1ccc2sc(C(F)F)cc2c1OCc1ccc(C(F)(F)F)cc1)C(=O)O [Compound 33-3, (2S)-2-(2-(difluoromethyl)-4-((4-(trifluoromethyl)benzyl)oxy)-benzo[b]thiophene-5-carboxamido)-3,3-dimethylbutanoic acid]
